Here are results for 81 compounds from the METLIN SMRT retention time set (Domingo-Almenara et al. 2019).

The data set can be described thus: gradient 5% acetonitrile 3 min, to 50% in 2 min, to 85% in 15 min, held 3 min, 100 µL/min. Conditions: column: Zorbax Extend-C18 2.1 x 50 mm; eluents: water / acetonitrile, 0.1% formic acid. Put shortly: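 Each retention time is based on an adduct peak selected computationally and verified by manual inspection. Measurements used HPLC–quadrupole time-of-flight mass spectrometry in positive and negative ionization mode on mixtures of ~100 pure standards. Chromatography ran on a Zorbax Extend-C18 column (2.1 × 50 mm, 1.8 μm) at 100 μL/min with water and acetonitrile, each containing 0.1% formic acid, and dead and dwell volumes of 40 μL and 900 μL.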
The compound `Cc1ccc(NC(=O)N2CCC(C)(C(=O)NCc3ccc(F)cc3)CC2)cc1Cl` registered an RP-LC retention time of 664 s.
Turning to `Nc1cc(C2CCN(C(=O)c3ccc(F)cc3)CC2)no1`, the RP-LC retention time came to 675 s.
To `Cc1csc(-c2cc(S(=O)(=O)Nc3ccc(F)c(F)c3)cn2CC(=O)N2CCCC2)n1` belongs 927 s; to `c1ccc2c(c1)CC(N1CCN(c3cccc4c3OCCO4)CC1)C2`, 741 s; to `Cc1cncn(CC(=O)NCc2cccs2)c1=O`, 580 s.
To `Clc1ccccc1C1Cn2cnc(-c3nc(-c4ccncc4)no3)c2CO1` (stereo unspecified) belongs 915 s; to `Cc1cc(C(=O)N2CC(c3nc(-c4ccccn4)no3)C2)no1`, 639 s.
Then `O=C(Nc1ccc(F)c(Cl)c1)c1c(O)c2cccnc2n(Cc2ccccc2)c1=O`, with 1230 s; and `Cc1ccsc1C(=O)N1CCN(c2ccc(=O)n(-c3ccc(Cl)cc3)n2)CC1`, with 878 s.
`O=C1CC(c2noc(CCc3ccccc3)n2)CN1c1ccc(F)c(Cl)c1` (stereo unspecified) came in with an RP-LC retention time of 1050 s.
To `CCCN1C(=O)c2c(C(=O)NCc3ccccc3F)ncn2CC1(C)C(=O)NCCC(C)C` (stereo unspecified) belongs 836 s.
`O=C(Cn1c(CO)nc2ccccc21)N1CCCC1`: the RP-LC retention time was determined as 565 s.
As for `Cc1nc(N2CCN(C(=O)CCCc3ccccc3)CC2)cc(-n2cccn2)n1`, the RP-LC retention time came to 928 s.
`O=C(Cn1cc(-c2nc(-c3ccc(Cl)cc3)no2)ccc1=O)NC1CCCCC1`: the RP-LC retention time was 1030 s.
In turn, `Cc1ccc(F)cc1S(=O)(=O)N1CCC(n2cnnc2C(C)C)CC1` displayed an RP-LC retention time of 740 s.
To `CC1CCc2nn(CC(=O)Nc3c(F)c(F)c(F)c(F)c3F)cc2C1` (stereo unspecified) belongs 934 s.
Then `CCOC(=O)c1nc(NCCN2CCCc3ccccc32)c2ccccc2n1`, with 729 s; and `Cc1cc(C)cc(NC(=O)NC2CCN(c3ccccc3)C2=O)c1` (stereo unspecified), with 697 s.
`CCOc1ccc(-c2noc(Cn3ncn4nc(-c5ccc(OC)cc5)cc4c3=O)n2)cc1OC` showed an RP-LC retention time of 1040 s.
In turn, `CC(=O)N1CCC(c2nc(-c3ccc4oc(-c5ccccc5)nc4c3)no2)CC1` returned an RP-LC retention time of 987 s.
`CC(C)(C)NCC(O)COc1nsnc1N1CCOCC1` (stereo unspecified) returned an RP-LC retention time of 626 s.
Then `CCc1c(C2CCN(C(=O)Nc3ccc(F)c(Cl)c3)CC2)noc1N`, with 926 s.
In the case of `Cc1ccc(Nc2c(-c3cccc(Br)c3)nc3cc(C)ccn23)cc1`, the RP-LC retention time was found to be 857 s.
Regarding `CCc1nc2cc(N3CCCC(C(=O)NCC4CC4)C3)cnc2nc1CC` (stereo unspecified), the RP-LC retention time was 762 s.
To `CCc1nc(-c2csc(S(=O)(=O)N3CCCC(C(=O)Nc4ccc5c(c4)OCO5)C3)c2)no1` (stereo unspecified) belongs 984 s; to `CN(C)[C@@H]1CN(C(=O)c2ccc(Br)cc2F)C[C@H]1CO`, 581 s; to `CCN(CC)c1ccc(-c2noc(CN3CCN(c4cccc(C)c4)CC3)n2)cn1`, 865 s.
`CC1(C(=O)NCc2ccc(F)cc2)CN(S(=O)(=O)c2ccccc2)CC(=O)N1C1CCCCC1` (stereo unspecified) showed an RP-LC retention time of 1020 s.
In the case of `Cc1ccc(NC(=O)C2CCCN2S(=O)(=O)c2cc3c(cc2C)NC(=O)CO3)cc1` (stereo unspecified), the RP-LC retention time amounted to 758 s.
On to `CCCn1c(=O)sc2cc(S(=O)(=O)N3CCC(C(=O)NCc4ccc(C)o4)CC3)ccc21`, for which the RP-LC retention time turned out to be 960 s.
To `O=C(NCCC1=CCCCC1)C1CCCN(C(=O)Cc2cccc3ccccc23)C1` (stereo unspecified) belongs 1030 s.
Regarding `CCOc1ccc(NC(=O)CN2C(=O)C3CCCCN3c3ccc(S(=O)(=O)N(C)C)cc32)cc1` (stereo unspecified), the RP-LC retention time is 945 s.
To `CCC(=O)N1CCc2cc(C(=O)NCc3ccc(C)o3)ccc21` belongs 757 s; to `Cc1cccc(N2C(=O)CN(CCC(C)C)[C@H]3CS(=O)(=O)C[C@H]32)c1`, 811 s; to `COc1cccc(Cn2c(=O)c3sccc3n(Cc3nc(-c4ccc(Cl)c(F)c4)no3)c2=O)c1`, 1180 s.
Compound `O=S(=O)(Nc1cccn2c(C3CCC3)nnc12)c1ccc2c(c1)OCCO2` gave an RP-LC retention time of 751 s.
Then `CCOC(=O)C1C(=O)NC(N2CCc3ccccc32)=NC1c1ccco1` (stereo unspecified), with 690 s; and `CCOCCCNC(=O)C1CCN(c2nccnc2Oc2cccc(C)c2)CC1`, with 861 s.
As to `CCOC(=O)c1c(C)[nH]c(CCC(=O)NCCc2c(C)noc2C)c1C`, the RP-LC retention time was determined as 729 s.
Then `COC1CN(c2cccc(F)c2)C12CCN(CC1CCCCC1)CC2` (stereo unspecified), with 806 s; and `CCn1nc(C)n2cc(S(=O)(=O)NCc3ccc(F)c(Cl)c3)cc2c1=O`, with 930 s.
To `O=S(=O)(c1cc(-c2ccno2)cs1)N(CCc1ccccc1)Cc1ccccc1` belongs 1200 s; to `O=C(Nc1cccc(Cl)c1)Nn1cnnc1`, 691 s; to `Cc1cc2c(cc1C)N(C(=O)CCl)CC(=O)N2`, 745 s.
To `c1coc(-c2nnc(-c3cc4ccccc4o3)o2)c1` belongs 925 s.
For `O=c1oc2cc(O)cc(O)c2c2ccccc12`, the RP-LC retention time was 699 s.
To `CC(C)CN1C(=O)c2cccn2CC1C(=O)NCC1CC1` (stereo unspecified) belongs 731 s; to `COC(=O)N1CCc2ccc(F)cc2C1C(=O)Nc1cccc2nsnc12` (stereo unspecified), 754 s.
`COc1ccc2cc(-c3nc(-c4ccc(S(C)=O)cc4)[nH]c3-c3ccncc3)ccc2c1` (stereo unspecified) gave an RP-LC retention time of 682 s.
Then `COCc1c(C(=O)O)nnn1-c1cccc(OC)c1`, with 668 s; and `Cc1nnc(NC(=O)C2CCN(C(=O)c3cccc(F)c3)CC2)s1`, with 661 s.
Then `COc1ccc(C(=O)N2CCc3cc(-c4csc(C)n4)ccc32)cc1F`, with 951 s; and `CCOc1ccc(CNC(=O)c2cn3c(n2)CCCC3)cc1`, with 606 s; and `O=C(NCCc1csc(C2CCCN(C(=O)C3CCCC3)C2)n1)C1CCC1` (stereo unspecified), with 718 s.
Then `CCS(=O)(=O)Nc1cccc(-c2nc3cccnc3s2)c1`, with 720 s; and `CCOc1ccc(S(=O)(=O)N2CCC(C(=O)NCCOC)CC2)cc1`, with 709 s; and `O=c1c2cc(-c3cccs3)nn2cnn1Cc1nc(-c2ccc(OCc3ccccc3)cc2)no1`, with 1220 s.
Compound `Cc1ccc(C)c(-c2nnc(NC(=O)c3ccccc3[N+](=O)[O-])o2)c1` displayed an RP-LC retention time of 798 s.
To `CCC1(O)CCOC2(CCN(Cc3cc(OC)cc(OC)c3)CC2)C1` (stereo unspecified) belongs 568 s; to `O=C(Cc1csc2nc(-c3ccccc3)cn12)NC1CCCCCCC1`, 877 s.
To `CCCCc1ccc(NC(=O)CSc2cc(N3CCN(c4ccccc4OC)CC3)ncn2)cc1` belongs 1310 s; to `COCCN1C(=O)[C@H]2CN(Cc3cc(Cl)ccc3F)C[C@H]2C1=O`, 696 s.
`COC(=O)C(C)n1nc2nc(Nc3cc(C)cc(C)c3)cc(C)n2c1=O` (stereo unspecified): the RP-LC retention time is 1160 s.
As for `O=C(Cn1nc2c3cc(-c4ccc(Cl)cc4)nn3ccn2c1=O)NC1CCCC1`, the RP-LC retention time is 1110 s.
`O=C(c1ccc(-c2ccsc2)nc1)N1CCN(c2ccccn2)CC1`: the RP-LC retention time came to 604 s.
Turning to `COC(=O)c1ccsc1NC(=O)CS(=O)(=O)Cc1ccccc1`, the RP-LC retention time amounted to 823 s.
Then `O=C(Cn1nc2c(cc1=O)CCCCC2)NCCc1c[nH]c2ccc(F)cc12`, with 794 s.
As to `Cc1nc(-c2noc(-c3cccnc3)n2)cn1CC(=O)N1CCc2ccccc21`, the RP-LC retention time was determined as 714 s.
Compound `COC(=O)c1ccc(C2CC(=O)NC3=C2C(=O)CC(c2ccc(F)cc2)C3)cc1` (stereo unspecified) came in with an RP-LC retention time of 820 s.
Then `Cc1noc([C@@H]2CN(C(=O)c3cn[nH]c3)C[C@H]2C(N)=O)n1`, with 536 s; and `Cc1ccc(NC(=O)N2CCCC2c2cc(C)on2)c(Cl)c1` (stereo unspecified), with 897 s.
Regarding `CC(=O)Nc1cccc(NS(=O)(=O)c2ccc3c(c2)OCCCO3)c1`, the RP-LC retention time worked out at 676 s.
In turn, `COC(=O)c1c(NCc2ccc(OC)cc2)c2cccc(Cl)c2[nH]c1=O` came in with an RP-LC retention time of 788 s.
Then `Cc1ccc(-c2nc(-c3cccc(-c4ccn[nH]4)c3)no2)cc1`, with 1090 s.
To `O=C(C1CCN(c2ccc(Cl)cc2)C1=O)N1CCN(c2ccccn2)CC1` (stereo unspecified) belongs 634 s; to `COc1ccc(-c2c(C)noc2NC(C)=O)cc1S(=O)(=O)Nc1ccc(C)cc1Cl`, 837 s.
Regarding `CCN(CC)c1ccc(Nc2nc(-c3ccc(F)c(C)c3)cs2)cc1`, the RP-LC retention time stood at 834 s.
For the compound `CCOC(=O)c1c(C)[nH]c(CCC(=O)NCCN2CCCCCC2)c1C`, the RP-LC retention time was 621 s.
Compound `Cc1ccc(CSc2nccc3c2ccn3CC(=O)NCc2cccnc2)cc1` displayed an RP-LC retention time of 823 s.
Consider `COc1ccc(C(=O)NC2c3ccccc3-c3ccccc32)cc1OC`, for which the RP-LC retention time is 861 s.
As for `COc1ccc(NC(=O)Cn2nc(N3CCC(C)CC3)c3ccccc3c2=O)c(OC)c1`, the RP-LC retention time came to 1130 s.
